According to PubChem BioAssay (NCI):
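Five concentrations, 48 hours, 96-well plates. TGI: total growth inhibition.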

How the values were obtained:
Assay in all cases: NCI-60 cell line screen, 48 h
MCF7 breast = system: MCF7 breast
NCI-H522 lung = system: NCI-H522 lung
HL-60(TB) leukemia = system: HL-60(TB) leukemia
SF-268 CNS = system: SF-268 CNS
SNB-19 CNS = system: SNB-19 CNS
EKVX NSCLC = system: EKVX NSCLC
COLO 205 colon = system: COLO 205 colon
IGROV1 ovarian = system: IGROV1 ovarian
HOP-18 NSCLC = system: HOP-18 NSCLC
LOX IMVI melanoma = system: LOX IMVI melanoma
XF 498 CNS = system: XF 498 CNS
MOLT-4 leukemia = system: MOLT-4 leukemia
CCRF-CEM leukemia = system: CCRF-CEM leukemia
SNB-75 CNS = system: SNB-75 CNS
KM20L2 colon = system: KM20L2 colon
HOP-92 NSCLC = system: HOP-92 NSCLC
NCI-H23 lung = system: NCI-H23 lung
MALME-3M melanoma = system: MALME-3M melanoma
CAKI-1 renal = system: CAKI-1 renal
U251 CNS = system: U251 CNS
A498 renal = system: A498 renal
RXF 393 renal = system: RXF 393 renal
MDA-MB-231 breast = system: MDA-MB-231 breast
MDA-MB-435 = system: MDA-MB-435
SK-MEL-2 melanoma = system: SK-MEL-2 melanoma
PC-3 prostate = system: PC-3 prostate
SK-MEL-28 melanoma = system: SK-MEL-28 melanoma
DMS 114 small cell lung = system: DMS 114 small cell lung
UACC-62 melanoma = system: UACC-62 melanoma
NCI-H226 lung = system: NCI-H226 lung
NCI/ADR-RES ovarian = system: NCI/ADR-RES ovarian
HCC-2998 colon = system: HCC-2998 colon
A549 NSCLC = system: A549 NSCLC
HOP-62 NSCLC = system: HOP-62 NSCLC
SK-MEL-5 melanoma = system: SK-MEL-5 melanoma
SW-620 colon = system: SW-620 colon
HCT-116 colon = system: HCT-116 colon
UO-31 renal = system: UO-31 renal
OVCAR-8 ovarian = system: OVCAR-8 ovarian
RPMI-8226 leukemia = system: RPMI-8226 leukemia
HCT-15 colon = system: HCT-15 colon
KM12 colon = system: KM12 colon
HS 578T breast = system: HS 578T breast
T-47D breast = system: T-47D breast
SK-OV-3 ovarian = system: SK-OV-3 ovarian
BT-549 breast = system: BT-549 breast
OVCAR-5 ovarian = system: OVCAR-5 ovarian
TK-10 renal = system: TK-10 renal
LXFL 529 NSCLC = system: LXFL 529 NSCLC
OVCAR-3 ovarian = system: OVCAR-3 ovarian
M19-MEL melanoma = system: M19-MEL melanoma
UACC-257 melanoma = system: UACC-257 melanoma
ACHN renal = system: ACHN renal
DU-145 prostate = system: DU-145 prostate
M14 melanoma = system: M14 melanoma
HT29 colon = system: HT29 colon
OVCAR-4 ovarian = system: OVCAR-4 ovarian
786-0 renal = system: 786-0 renal
SR leukemia = system: SR leukemia
SF-539 CNS = system: SF-539 CNS
K-562 leukemia = system: K-562 leukemia
SN12C renal = system: SN12C renal
DMS 273 small cell lung = system: DMS 273 small cell lung
SF-295 CNS = system: SF-295 CNS
NCI-H460 lung = system: NCI-H460 lung
DLD-1 colon = system: DLD-1 colon
SNB-78 CNS = system: SNB-78 CNS

Cc1nc2ccccc2c(=O)n1/N=C(\N=Nc1cc(Cl)ccc1Cl)c1ccccc1
TGI (MCF7 breast): > 100 µM | TGI (NCI-H522 lung): 81.7 µM | TGI (HL-60(TB) leukemia): > 100 µM | TGI (SF-268 CNS): > 100 µM | TGI (SNB-19 CNS): > 31.6 µM | TGI (EKVX NSCLC): > 100 µM | TGI (COLO 205 colon): > 100 µM | TGI (IGROV1 ovarian): > 100 µM | TGI (HOP-18 NSCLC): 44.9 µM | TGI (LOX IMVI melanoma): > 100 µM | TGI (XF 498 CNS): > 100 µM | TGI (MOLT-4 leukemia): > 100 µM | TGI (CCRF-CEM leukemia): > 100 µM | TGI (SNB-75 CNS): 74.1 µM | TGI (KM20L2 colon): 4.47 µM | TGI (HOP-92 NSCLC): > 100 µM | TGI (NCI-H23 lung): > 100 µM | TGI (MALME-3M melanoma): > 100 µM | TGI (CAKI-1 renal): > 100 µM | TGI (U251 CNS): > 75.2 µM | TGI (A498 renal): > 100 µM | TGI (RXF 393 renal): > 100 µM | TGI (MDA-MB-231 breast): > 100 µM | TGI (MDA-MB-435): 44.1 µM | TGI (SK-MEL-2 melanoma): > 100 µM | TGI (PC-3 prostate): > 100 µM | TGI (SK-MEL-28 melanoma): > 100 µM | TGI (DMS 114 small cell lung): 82.4 µM | TGI (UACC-62 melanoma): > 100 µM | TGI (NCI-H226 lung): > 100 µM | TGI (NCI/ADR-RES ovarian): > 100 µM | TGI (HCC-2998 colon): > 100 µM | TGI (A549 NSCLC): > 100 µM | TGI (HOP-62 NSCLC): > 100 µM | TGI (SK-MEL-5 melanoma): > 100 µM | TGI (SW-620 colon): > 73.8 µM | TGI (HCT-116 colon): > 31.6 µM | TGI (UO-31 renal): > 31.6 µM | TGI (OVCAR-8 ovarian): > 100 µM | TGI (RPMI-8226 leukemia): > 100 µM | TGI (HCT-15 colon): > 100 µM | TGI (KM12 colon): 25.8 µM | TGI (HS 578T breast): > 100 µM | TGI (T-47D breast): > 100 µM | TGI (SK-OV-3 ovarian): > 100 µM | TGI (BT-549 breast): > 100 µM | TGI (OVCAR-5 ovarian): > 100 µM | TGI (TK-10 renal): > 100 µM | TGI (LXFL 529 NSCLC): > 100 µM | TGI (OVCAR-3 ovarian): > 100 µM | TGI (M19-MEL melanoma): > 100 µM | TGI (UACC-257 melanoma): 66 µM | TGI (ACHN renal): > 100 µM | TGI (DU-145 prostate): > 100 µM | TGI (M14 melanoma): > 100 µM | TGI (HT29 colon): > 88.7 µM | TGI (OVCAR-4 ovarian): > 100 µM | TGI (786-0 renal): > 100 µM | TGI (SR leukemia): > 100 µM | TGI (SF-539 CNS): > 100 µM | TGI (K-562 leukemia): > 100 µM | TGI (SN12C renal): > 83.3 µM | TGI (DMS 273 small cell lung): > 100 µM | TGI (SF-295 CNS): > 100 µM | TGI (NCI-H460 lung): > 100 µM | TGI (DLD-1 colon): > 100 µM

COc1ccc(Br)c(C(=O)N2CCc3ccccc32)c1N
TGI (NCI-H522 lung): 36.8 µM | TGI (HL-60(TB) leukemia): > 100 µM | TGI (SNB-19 CNS): > 100 µM | TGI (COLO 205 colon): > 100 µM | TGI (IGROV1 ovarian): > 100 µM | TGI (HOP-18 NSCLC): > 100 µM | TGI (LOX IMVI melanoma): > 100 µM | TGI (XF 498 CNS): > 100 µM | TGI (MOLT-4 leukemia): > 100 µM | TGI (CCRF-CEM leukemia): > 100 µM | TGI (SNB-75 CNS): 90.3 µM | TGI (KM20L2 colon): > 100 µM | TGI (HOP-92 NSCLC): > 100 µM | TGI (SNB-78 CNS): > 100 µM | TGI (NCI-H23 lung): > 100 µM | TGI (MALME-3M melanoma): > 100 µM | TGI (U251 CNS): > 100 µM | TGI (RXF 393 renal): > 100 µM | TGI (SK-MEL-2 melanoma): 84.5 µM | TGI (SK-MEL-28 melanoma): > 100 µM | TGI (DMS 114 small cell lung): 79.4 µM | TGI (UACC-62 melanoma): > 100 µM | TGI (NCI-H226 lung): > 100 µM | TGI (HCC-2998 colon): > 100 µM | TGI (A549 NSCLC): > 100 µM | TGI (HOP-62 NSCLC): > 100 µM | TGI (SK-MEL-5 melanoma): > 100 µM | TGI (SW-620 colon): > 100 µM | TGI (HCT-116 colon): > 100 µM | TGI (UO-31 renal): > 100 µM | TGI (OVCAR-8 ovarian): > 100 µM | TGI (RPMI-8226 leukemia): > 100 µM | TGI (HCT-15 colon): > 100 µM | TGI (KM12 colon): > 100 µM | TGI (SK-OV-3 ovarian): 80.2 µM | TGI (OVCAR-5 ovarian): > 100 µM | TGI (TK-10 renal): > 100 µM | TGI (LXFL 529 NSCLC): > 100 µM | TGI (OVCAR-3 ovarian): 66.2 µM | TGI (M19-MEL melanoma): > 100 µM | TGI (UACC-257 melanoma): > 100 µM | TGI (ACHN renal): > 100 µM | TGI (M14 melanoma): > 100 µM | TGI (HT29 colon): > 100 µM | TGI (OVCAR-4 ovarian): > 100 µM | TGI (786-0 renal): > 100 µM | TGI (SR leukemia): 79.1 µM | TGI (SF-539 CNS): 97 µM | TGI (K-562 leukemia): > 100 µM | TGI (SN12C renal): > 100 µM | TGI (DMS 273 small cell lung): 99.3 µM | TGI (SF-295 CNS): > 100 µM | TGI (NCI-H460 lung): > 100 µM | TGI (DLD-1 colon): > 100 µM
